How the values were obtained:
Test in all cases: Kinase profiling in a biochemical assay panel (mobility shift assays and ELISA), %-inhibition at 1 μM; selectivity entropy
[1] = target: T1, panel of more than 300 wild-type and mutant kinases (313 kinase panel) (Homo sapiens, UniProt Q96PF2)
T1 sequence (Q96PF2 1-358): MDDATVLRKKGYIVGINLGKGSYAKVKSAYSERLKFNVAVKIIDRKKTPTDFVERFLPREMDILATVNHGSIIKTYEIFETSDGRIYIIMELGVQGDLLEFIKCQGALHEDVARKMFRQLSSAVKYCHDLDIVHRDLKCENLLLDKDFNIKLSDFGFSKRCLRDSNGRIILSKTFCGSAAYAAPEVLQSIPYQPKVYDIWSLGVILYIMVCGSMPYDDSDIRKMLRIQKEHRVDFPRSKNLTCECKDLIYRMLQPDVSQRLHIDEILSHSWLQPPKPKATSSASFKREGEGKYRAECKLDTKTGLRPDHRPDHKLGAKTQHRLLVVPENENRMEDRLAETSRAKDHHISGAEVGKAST

[2] = target: panel of more than 300 wild-type and mutant kinases (313 kinase panel) (Homo sapiens, UniProt P29597)
[3] = target: panel of more than 300 wild-type and mutant kinases (313 kinase panel) (Homo sapiens, UniProt P57059)
[4] = target: panel of more than 300 wild-type and mutant kinases (313 kinase panel) (Homo sapiens, UniProt Q9NYY3)
[5] = target: T2, panel of more than 300 wild-type and mutant kinases (313 kinase panel) (Homo sapiens, UniProt Q12852)
T2 sequence (Q12852 1-859): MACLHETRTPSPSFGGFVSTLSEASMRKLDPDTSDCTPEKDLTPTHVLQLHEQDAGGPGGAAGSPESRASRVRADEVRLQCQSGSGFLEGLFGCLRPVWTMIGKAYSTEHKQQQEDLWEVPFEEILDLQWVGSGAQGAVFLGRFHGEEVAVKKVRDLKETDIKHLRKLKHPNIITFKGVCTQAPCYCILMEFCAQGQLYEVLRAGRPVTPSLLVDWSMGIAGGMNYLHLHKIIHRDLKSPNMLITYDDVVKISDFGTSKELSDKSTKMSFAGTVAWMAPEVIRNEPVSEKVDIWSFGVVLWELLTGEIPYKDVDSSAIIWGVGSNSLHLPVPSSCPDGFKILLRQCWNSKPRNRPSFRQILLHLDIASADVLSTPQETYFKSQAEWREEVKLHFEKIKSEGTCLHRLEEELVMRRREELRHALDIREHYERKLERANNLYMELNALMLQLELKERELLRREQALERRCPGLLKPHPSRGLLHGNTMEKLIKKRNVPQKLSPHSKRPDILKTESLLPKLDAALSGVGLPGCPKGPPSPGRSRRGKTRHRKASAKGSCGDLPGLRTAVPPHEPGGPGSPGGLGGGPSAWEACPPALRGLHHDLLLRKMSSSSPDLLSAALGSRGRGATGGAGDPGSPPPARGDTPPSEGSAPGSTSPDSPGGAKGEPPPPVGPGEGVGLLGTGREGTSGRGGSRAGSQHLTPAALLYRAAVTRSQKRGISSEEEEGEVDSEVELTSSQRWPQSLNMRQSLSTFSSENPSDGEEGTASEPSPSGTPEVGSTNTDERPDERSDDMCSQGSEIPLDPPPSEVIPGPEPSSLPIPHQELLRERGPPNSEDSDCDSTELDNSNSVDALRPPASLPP

[6] = target: panel of more than 300 wild-type and mutant kinases (313 kinase panel) (Homo sapiens, UniProt P78368)
[7] = target: T3, panel of more than 300 wild-type and mutant kinases (313 kinase panel) (Homo sapiens, UniProt Q8TF76)
T3 sequence (Q8TF76 1-798): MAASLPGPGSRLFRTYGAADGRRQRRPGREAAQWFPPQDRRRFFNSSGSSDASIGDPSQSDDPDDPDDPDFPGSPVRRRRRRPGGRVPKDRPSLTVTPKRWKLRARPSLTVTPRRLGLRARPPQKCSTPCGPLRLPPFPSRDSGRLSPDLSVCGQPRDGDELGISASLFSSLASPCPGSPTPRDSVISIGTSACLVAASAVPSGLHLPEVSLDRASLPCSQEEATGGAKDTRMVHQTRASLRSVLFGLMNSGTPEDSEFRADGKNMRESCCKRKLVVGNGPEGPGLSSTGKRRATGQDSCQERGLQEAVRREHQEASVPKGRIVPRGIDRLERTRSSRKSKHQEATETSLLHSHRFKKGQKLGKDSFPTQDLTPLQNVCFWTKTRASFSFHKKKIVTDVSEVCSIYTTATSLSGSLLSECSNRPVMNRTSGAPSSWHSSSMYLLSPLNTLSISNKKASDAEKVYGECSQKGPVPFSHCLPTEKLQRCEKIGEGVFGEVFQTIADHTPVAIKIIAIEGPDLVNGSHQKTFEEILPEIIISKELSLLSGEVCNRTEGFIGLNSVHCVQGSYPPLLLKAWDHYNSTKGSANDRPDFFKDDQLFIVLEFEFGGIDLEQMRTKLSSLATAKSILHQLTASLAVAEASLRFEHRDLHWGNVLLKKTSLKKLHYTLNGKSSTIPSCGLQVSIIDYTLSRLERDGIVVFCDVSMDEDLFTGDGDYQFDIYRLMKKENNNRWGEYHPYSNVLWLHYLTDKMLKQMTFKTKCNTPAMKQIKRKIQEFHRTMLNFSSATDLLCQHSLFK

[8] = target: panel of more than 300 wild-type and mutant kinases (313 kinase panel) (Homo sapiens, UniProt P42684)
[9] = target: panel of more than 300 wild-type and mutant kinases (313 kinase panel) (Homo sapiens, UniProt O75582)
[10] = kinase Haspin, compound at 1 μM

Sequence of panel of more than 300 wild-type and mutant kinases (313 kinase panel) (Homo sapiens, UniProt P29597) (P29597 whole entry, change not shown): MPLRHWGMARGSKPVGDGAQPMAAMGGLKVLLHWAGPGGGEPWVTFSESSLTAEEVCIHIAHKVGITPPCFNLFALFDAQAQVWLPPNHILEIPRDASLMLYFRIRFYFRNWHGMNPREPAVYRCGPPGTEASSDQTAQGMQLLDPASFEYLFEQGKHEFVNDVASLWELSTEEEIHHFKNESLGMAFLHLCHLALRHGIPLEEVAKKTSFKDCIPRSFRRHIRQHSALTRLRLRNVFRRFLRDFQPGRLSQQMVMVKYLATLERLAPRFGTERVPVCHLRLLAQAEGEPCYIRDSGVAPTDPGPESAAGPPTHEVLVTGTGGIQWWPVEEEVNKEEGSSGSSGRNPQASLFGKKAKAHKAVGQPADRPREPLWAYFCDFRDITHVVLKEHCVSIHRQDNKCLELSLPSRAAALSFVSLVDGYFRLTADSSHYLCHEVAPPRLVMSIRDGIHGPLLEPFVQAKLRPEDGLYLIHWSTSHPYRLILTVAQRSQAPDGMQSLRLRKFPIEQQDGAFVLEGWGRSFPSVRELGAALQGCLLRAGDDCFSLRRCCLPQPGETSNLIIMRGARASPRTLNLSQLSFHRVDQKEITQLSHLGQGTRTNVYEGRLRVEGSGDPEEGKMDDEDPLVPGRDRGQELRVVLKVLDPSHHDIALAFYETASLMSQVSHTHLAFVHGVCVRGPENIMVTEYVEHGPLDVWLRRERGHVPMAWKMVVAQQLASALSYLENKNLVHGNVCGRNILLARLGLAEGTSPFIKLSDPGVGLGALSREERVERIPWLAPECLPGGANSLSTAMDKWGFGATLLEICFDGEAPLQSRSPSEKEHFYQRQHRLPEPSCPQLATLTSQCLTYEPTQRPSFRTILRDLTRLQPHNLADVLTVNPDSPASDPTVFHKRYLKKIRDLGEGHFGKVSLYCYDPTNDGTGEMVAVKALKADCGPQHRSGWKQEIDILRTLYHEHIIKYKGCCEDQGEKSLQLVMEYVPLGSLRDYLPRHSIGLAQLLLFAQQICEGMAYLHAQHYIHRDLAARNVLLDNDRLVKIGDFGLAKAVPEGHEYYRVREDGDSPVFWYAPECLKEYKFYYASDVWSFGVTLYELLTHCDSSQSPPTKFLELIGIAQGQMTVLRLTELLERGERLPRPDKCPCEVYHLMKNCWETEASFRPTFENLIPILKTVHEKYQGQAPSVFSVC

| Structure (SMILES) | %-inhibition of TSSK2 ([1]; kinase TSSK2, 1 μM) | %-inhibition of TYK2 ([2]; kinase TYK2, compound at 1 μM) | %-inhibition of SIK ([3]; kinase SIK, 1 μM) | %-inhibition of PLK2 ([4]; kinase PLK2, 1 μM) | %-inhibition of DLK ([5]; kinase DLK, compound at 1 μM) | %-inhibition, CK1γ2 ([6]; kinase CK1γ2, 1 μM compound) | %-inhibition of Haspin [7, 10] | %-inhibition, ARG ([8]; kinase ARG, 1 μM compound) | %-inhibition of MSK1 ([9]; kinase MSK1, 1 μM) | %-inhibition of TSSK2 ([1]; 1 µM) | %-inhibition of TYK2 ([2]; 1 µM) | %-inhibition of Haspin ([7]; 1 µM) | %-inhibition of SIK ([3]; 1 µM) | %-inhibition of PLK2 ([4]; 1 µM) | %-inhibition of DLK ([5]; 1 µM) | %-inhibition, CK1γ2 ([6]; 1 µM) | %-inhibition of MSK1 ([9]; 1 µM) | %-inhibition, ARG ([8]; 1 µM) |
| --- | --- | --- | --- | --- | --- | --- | --- | --- | --- | --- | --- | --- | --- | --- | --- | --- | --- | --- |
| CN(C)C/C=C/C(=O)Nc1cc2c(Nc3ccc(F)c(Cl)c3)ncnc2cc1O[C@H]1CCOC1 [afatinib] | 2% | – | – | – | – | – | – | – | – | – | – | – | – | – | – | – | – | – |
| COc1cc(Nc2c(C#N)cnc3cc(OCCCN4CCN(C)CC4)c(OC)cc23)c(Cl)cc1Cl [bosutinib] | -9% | -3.37% | 100% | 21% | 77% | -2.3% | – | – | – | – | – | – | – | – | – | – | – | – |
| COc1cc2nccc(Oc3ccc(NC(=O)C4(C(=O)Nc5ccc(F)cc5)CC4)cc3)c2cc1OC [cabozantinib] | 0.418% | -3.68% | 6% | 4.4% | 36% | 0.731% | 8% | 29% | -2% | – | – | – | – | – | – | – | – | – |
| C[C@@H](Oc1cc(-c2cnn(C3CCNCC3)c2)cnc1N)c1c(Cl)ccc(F)c1Cl [crizotinib] | 0.896% | 21% | 26% | 1.1% | 86% | – | 7% | 80% | -0.641% | – | – | – | – | – | – | – | – | – |
| CC(C)(C)c1nc(-c2cccc(NS(=O)(=O)c3c(F)cccc3F)c2F)c(-c2ccnc(N)n2)s1 [dabrafenib] | -1.73% | 10% | 100% | -4.64% | -10% | – | 9% | 54% | 0.0759% | – | – | – | – | – | – | – | – | – |
| Cc1nc(Nc2ncc(C(=O)Nc3c(C)cccc3Cl)s2)cc(N2CCN(CCO)CC2)n1 [dasatinib] | – | – | – | – | 20% | 20% | -13% | – | – | – | – | – | – | – | – | – | – | – |
| C#Cc1cccc(Nc2ncnc3cc(OCCOC)c(OCCOC)cc23)c1 [erlotinib] | – | – | – | – | – | – | – | – | – | 2% | -2.7% | -8% | 8% | -3.59% | -1.89% | 8% | 9% | – |
| CO[C@H]1C[C@@H]2CC[C@@H](C)[C@@](O)(O2)C(=O)C(=O)N2CCCC[C@H]2C(=O)O[C@H]([C@H](C)C[C@@H]2CC[C@@H](OCCO)[C@H](OC)C2)CC(=O)[C@H](C)/C=C(\C)[C@@H](O)[C@@H](OC)C(=O)[C@H](C)C[C@H](C)/C=C/C=C/C=C/1C [everolimus] | -11% | -7% | -5.51% | 1.38% | -5% | -2.3% | -0.358% | 1.07% | -2% | – | – | – | – | – | – | – | – | – |
| O=S(=O)(c1cccc2cnccc12)N1CCCNCC1 [fasudil] | -0.28% | 6% | -0.948% | 7% | -11% | 18% | 72% | -7% | 37% | – | – | – | – | – | – | – | – | – |
| CS(=O)(=O)CCNCc1ccc(-c2ccc3ncnc(Nc4ccc(OCc5cccc(F)c5)c(Cl)c4)c3c2)o1 [lapatinib] | -7.54% | -10% | -7% | -4% | -3.44% | -1.22% | 3.3% | 11% | 7% | – | – | – | – | – | – | – | – | – |
| Cc1cn(-c2cc(NC(=O)c3ccc(C)c(Nc4nccc(-c5cccnc5)n4)c3)cc(C(F)(F)F)c2)cn1 [nilotinib] | 2.58% | – | -25% | – | – | 5.57% | 2.56% | – | 2.48% | – | -1.71% | – | – | 6% | 1.43% | – | – | 95% |
| Cc1ccc(Nc2nccc(N(C)c3ccc4c(C)n(C)nc4c3)n2)cc1S(N)(=O)=O [pazopanib] | -2.46% | 5.31% | 19% | 1.23% | 40% | -0.747% | -0.746% | 67% | 0.901% | – | – | – | – | – | – | – | – | – |
| Cc1ccc(C(=O)Nc2ccc(CN3CCN(C)CC3)c(C(F)(F)F)c2)cc1C#Cc1cnc2cccnn12 [ponatinib] | -8% | 66% | 96% | -1.17% | 84% | 0.169% | – | 100% | – | – | – | – | – | – | – | – | – | – |
| N#CC[C@H](C1CCCC1)n1cc(-c2ncnc3[nH]ccc23)cn1 [ruxolitinib] | -10% | – | 22% | 10% | – | -0.393% | -6.62% | 6% | 37% | – | – | – | – | – | -0.311% | – | – | – |

Source: article PMC3961306, “Comparison of the Cancer Gene Targeting and Biochemical Selectivities of All Targeted Kinase Inhibitors Approved for Clinical Use” (PLoS ONE, 2014)
